Reference: patent US11331299B2, “Medicinal use of serrulatane diterpenes” (The University of Sydney, priority 2016, dated 2022)
“And” between values parts separate entries of the source, which are not always exact repeats. Identical values can stand only once.

Tests used:
[1] = target: T1, ASH1L (h) bromodomain (Homo sapiens, UniProt Q9NR48); test: Epigenetic binding assay, Bromodomain; settings: for inhibition at 10 µM: read-out: % Inhibition of Control Specific Binding
T1 construct: ASH1L (h) bromodomain

[2] = target: T2, BAZ2A (h) bromodomain (Homo sapiens, UniProt Q9UIF9); test: Epigenetic binding assay, Bromodomain; settings: read-out: % Inhibition of Control Specific Binding
T2 construct: Bromodomain
T2 sequence (Q9UIF9 1793-1897 limits assumed): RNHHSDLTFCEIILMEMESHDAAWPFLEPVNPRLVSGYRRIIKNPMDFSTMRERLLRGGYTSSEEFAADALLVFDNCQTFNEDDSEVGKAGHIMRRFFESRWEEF

[3] = target: T3, EP300 (h) bromodomain (Homo sapiens, UniProt Q09472); test: Epigenetic binding assay, Bromodomain; settings: for inhibition at 10 µM: read-out: % Inhibition of Control Specific Binding
T3 construct: Bromodomain
T3 sequence (Q09472 1049-1156 limits assumed): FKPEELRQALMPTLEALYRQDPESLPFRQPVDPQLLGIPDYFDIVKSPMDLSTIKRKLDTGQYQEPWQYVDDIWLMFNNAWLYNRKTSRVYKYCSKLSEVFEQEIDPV

[4] = target: T4, PB1(2) (h) bromodomain (Homo sapiens, UniProt Q86U86); test: Epigenetic binding assay, Bromodomain; settings: read-out: % Inhibition of Control Specific Binding
T4 construct: Bromodomain
T4 sequence (Q86U86 177-287 limits assumed): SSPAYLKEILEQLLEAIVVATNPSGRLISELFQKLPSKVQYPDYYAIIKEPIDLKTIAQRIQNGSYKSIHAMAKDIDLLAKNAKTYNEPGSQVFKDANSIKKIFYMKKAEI

[5] = target: T5, SP140 (h) bromodomain (Homo sapiens, UniProt Q13342); test: Epigenetic binding assay, Bromodomain; set-up: inhibition of binding, 1st / inhibition of binding, 2nd / inhibition of binding, Mean: unit: %; settings: for inhibition at 10 µM: read-out: % Inhibition of Control Specific Binding
T5 construct: SP140 (h) bromodomain
T5 sequence (Q13342 754-857 limits assumed): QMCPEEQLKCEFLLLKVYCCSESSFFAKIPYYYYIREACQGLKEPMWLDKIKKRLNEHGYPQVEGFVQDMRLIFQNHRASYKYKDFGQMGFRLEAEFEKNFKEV

[6] = target: T6, BRD2(1) (h) bromodomain (Homo sapiens, UniProt P25440); test: Epigenetic binding assay, Bromodomain; settings: for % Inhibition of Control Specific Binding / inhibition at 10 µM: 10 μM; for inhibition at 10 µM: read-out: % Inhibition of Control Specific Binding
T6 construct: Bromodomain
T6 sequence (P25440 74-180 limits assumed): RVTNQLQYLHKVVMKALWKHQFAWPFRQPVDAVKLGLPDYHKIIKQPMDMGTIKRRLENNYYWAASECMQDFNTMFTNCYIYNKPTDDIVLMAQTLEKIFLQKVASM

[7] = target: T7, CBX8 (h) chromodomain (Homo sapiens, UniProt Q9HC52); test: Epigenetic binding assay, Chromodomain; settings: read-out: % Inhibition of Control Specific Binding
T7 construct: Recognition and specificity determinants of the human cbx chromodomains; Eurofins CEREP (France), contract laboratory
T7 sequence (Q9HC52 11-69 limits assumed): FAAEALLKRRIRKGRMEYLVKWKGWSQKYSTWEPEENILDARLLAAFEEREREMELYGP

[8] = target: T8, PHF20(1) Tudor domain (Homo sapiens, UniProt Q9BVI0); test: Epigenetic binding assay, Tudor domain; settings: read-out: % Inhibition of Control Specific Binding
T8 construct: Crystal structures of the Tudor domains of human PHF20; Eurofins CEREP (France), contract laboratory
T8 sequence (Q9BVI0 4-69 limits assumed): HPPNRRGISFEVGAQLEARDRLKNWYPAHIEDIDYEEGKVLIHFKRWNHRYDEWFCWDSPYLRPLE

[9] = target: T9, JMJD2C (h) (Homo sapiens, UniProt Q9H3R0); test: Epigenetic enzyme assay, Demethylases (KDMs); assay type: biochemical; settings: read-out: % Inhibition of Control Values
T9 sequence (Q9H3R0 1-1056): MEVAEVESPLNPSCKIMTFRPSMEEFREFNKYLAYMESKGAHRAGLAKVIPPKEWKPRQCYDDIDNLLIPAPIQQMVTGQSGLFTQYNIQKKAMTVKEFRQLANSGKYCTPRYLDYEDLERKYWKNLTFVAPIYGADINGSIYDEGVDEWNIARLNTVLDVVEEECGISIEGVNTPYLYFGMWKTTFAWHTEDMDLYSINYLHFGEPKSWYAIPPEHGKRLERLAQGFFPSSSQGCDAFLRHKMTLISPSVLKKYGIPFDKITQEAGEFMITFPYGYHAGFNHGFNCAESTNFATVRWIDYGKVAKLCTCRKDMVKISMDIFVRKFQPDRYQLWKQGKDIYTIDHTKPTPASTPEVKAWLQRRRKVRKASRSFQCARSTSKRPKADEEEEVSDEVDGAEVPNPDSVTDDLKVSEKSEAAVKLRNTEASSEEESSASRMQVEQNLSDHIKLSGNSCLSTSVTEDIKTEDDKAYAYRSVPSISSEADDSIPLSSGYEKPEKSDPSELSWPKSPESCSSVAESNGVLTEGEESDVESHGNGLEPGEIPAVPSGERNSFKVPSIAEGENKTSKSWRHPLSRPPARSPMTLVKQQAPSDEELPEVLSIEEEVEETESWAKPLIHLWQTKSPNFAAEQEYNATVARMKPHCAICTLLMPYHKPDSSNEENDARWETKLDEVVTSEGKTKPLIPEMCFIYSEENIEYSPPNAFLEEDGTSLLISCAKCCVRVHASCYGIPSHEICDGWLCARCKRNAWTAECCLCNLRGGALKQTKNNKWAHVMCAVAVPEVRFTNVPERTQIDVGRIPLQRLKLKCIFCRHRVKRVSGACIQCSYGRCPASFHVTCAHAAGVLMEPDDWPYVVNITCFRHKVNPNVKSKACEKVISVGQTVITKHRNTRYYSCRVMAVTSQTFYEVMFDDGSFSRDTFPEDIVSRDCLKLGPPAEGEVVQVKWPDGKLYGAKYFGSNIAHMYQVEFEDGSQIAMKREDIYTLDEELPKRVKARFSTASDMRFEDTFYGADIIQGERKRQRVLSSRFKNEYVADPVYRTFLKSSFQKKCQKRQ

[10] = target: CREBBP(h) (Homo sapiens, UniProt Q92793); test: Epigenetic enzyme assay, Histone acetyltransferases (HATs); assay type: biochemical; settings: for inhibition at 10 µM: read-out: % Inhibition of Control Values; for IC50: Table 11, inhibition/concentration-response curve
Chain of CREBBP(h) (Q92793 whole entry): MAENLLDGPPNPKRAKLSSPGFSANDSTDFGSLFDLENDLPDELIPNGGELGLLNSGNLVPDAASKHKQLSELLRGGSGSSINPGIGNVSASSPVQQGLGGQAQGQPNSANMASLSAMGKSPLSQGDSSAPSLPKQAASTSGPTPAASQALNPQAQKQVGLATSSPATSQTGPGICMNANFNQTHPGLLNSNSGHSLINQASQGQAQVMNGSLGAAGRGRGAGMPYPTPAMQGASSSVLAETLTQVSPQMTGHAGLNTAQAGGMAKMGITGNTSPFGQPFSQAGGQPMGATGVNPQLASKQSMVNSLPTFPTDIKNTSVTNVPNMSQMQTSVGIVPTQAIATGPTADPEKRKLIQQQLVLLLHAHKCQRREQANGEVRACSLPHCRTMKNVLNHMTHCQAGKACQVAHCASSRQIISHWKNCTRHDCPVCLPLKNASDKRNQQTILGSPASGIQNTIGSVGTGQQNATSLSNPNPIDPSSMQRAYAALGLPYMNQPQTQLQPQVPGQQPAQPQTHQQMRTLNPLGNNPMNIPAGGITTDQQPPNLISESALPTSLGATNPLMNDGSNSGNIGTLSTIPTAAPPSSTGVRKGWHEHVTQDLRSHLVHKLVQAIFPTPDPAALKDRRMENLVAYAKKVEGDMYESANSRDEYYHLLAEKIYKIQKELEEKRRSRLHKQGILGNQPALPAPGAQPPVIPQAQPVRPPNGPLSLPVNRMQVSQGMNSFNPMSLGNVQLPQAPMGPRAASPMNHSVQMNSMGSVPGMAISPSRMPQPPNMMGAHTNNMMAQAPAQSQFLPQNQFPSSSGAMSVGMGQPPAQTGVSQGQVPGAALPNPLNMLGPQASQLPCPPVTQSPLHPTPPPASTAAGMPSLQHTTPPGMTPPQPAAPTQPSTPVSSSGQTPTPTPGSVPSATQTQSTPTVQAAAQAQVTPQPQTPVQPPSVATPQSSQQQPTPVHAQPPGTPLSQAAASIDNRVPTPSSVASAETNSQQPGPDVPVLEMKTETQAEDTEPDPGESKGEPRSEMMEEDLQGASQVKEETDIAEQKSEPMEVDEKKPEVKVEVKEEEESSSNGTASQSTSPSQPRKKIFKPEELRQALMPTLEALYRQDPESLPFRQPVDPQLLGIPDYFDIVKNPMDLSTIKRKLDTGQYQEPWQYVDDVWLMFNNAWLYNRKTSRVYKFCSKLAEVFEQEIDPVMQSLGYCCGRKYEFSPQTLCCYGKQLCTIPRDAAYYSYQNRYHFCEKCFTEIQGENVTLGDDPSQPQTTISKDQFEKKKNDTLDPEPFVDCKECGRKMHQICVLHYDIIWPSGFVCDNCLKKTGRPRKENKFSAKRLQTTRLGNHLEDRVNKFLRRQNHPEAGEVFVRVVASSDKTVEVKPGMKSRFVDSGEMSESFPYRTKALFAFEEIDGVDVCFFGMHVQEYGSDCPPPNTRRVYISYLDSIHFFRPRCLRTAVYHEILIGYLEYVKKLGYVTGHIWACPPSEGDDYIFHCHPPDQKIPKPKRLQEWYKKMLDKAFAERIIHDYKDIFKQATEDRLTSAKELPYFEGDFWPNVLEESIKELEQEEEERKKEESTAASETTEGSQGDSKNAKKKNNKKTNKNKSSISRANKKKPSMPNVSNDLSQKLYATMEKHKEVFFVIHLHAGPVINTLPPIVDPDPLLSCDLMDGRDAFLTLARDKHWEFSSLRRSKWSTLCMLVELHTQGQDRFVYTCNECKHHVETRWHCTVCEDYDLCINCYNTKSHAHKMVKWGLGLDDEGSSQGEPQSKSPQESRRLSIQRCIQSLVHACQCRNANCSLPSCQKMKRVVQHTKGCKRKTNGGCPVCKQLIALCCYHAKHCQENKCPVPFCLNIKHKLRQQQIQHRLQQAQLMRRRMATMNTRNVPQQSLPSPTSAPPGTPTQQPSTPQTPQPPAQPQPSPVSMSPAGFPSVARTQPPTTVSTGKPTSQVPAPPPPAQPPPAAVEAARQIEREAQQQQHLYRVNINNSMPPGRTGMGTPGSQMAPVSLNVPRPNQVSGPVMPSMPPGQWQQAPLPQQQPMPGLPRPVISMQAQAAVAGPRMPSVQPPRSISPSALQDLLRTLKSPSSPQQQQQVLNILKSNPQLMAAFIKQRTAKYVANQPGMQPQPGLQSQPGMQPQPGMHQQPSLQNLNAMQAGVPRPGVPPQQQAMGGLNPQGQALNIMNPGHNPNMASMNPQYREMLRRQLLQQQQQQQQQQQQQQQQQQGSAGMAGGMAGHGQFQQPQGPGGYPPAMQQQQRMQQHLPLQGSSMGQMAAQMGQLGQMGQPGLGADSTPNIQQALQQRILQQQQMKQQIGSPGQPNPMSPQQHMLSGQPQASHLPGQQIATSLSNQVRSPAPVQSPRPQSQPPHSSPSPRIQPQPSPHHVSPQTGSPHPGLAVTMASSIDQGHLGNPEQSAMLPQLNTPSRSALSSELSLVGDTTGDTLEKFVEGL

[11] = target: T10, Monoamine Oxidase MAO-A (Homo sapiens, UniProt P21397); test: Monoamine Oxidase MAO-A; assay type: biochemical; settings: for remaining activity at 10 µM: read-out: % Control Response
T10 construct: host or cells: Insect Hi5 cells
T10 sequence (P21397 1-527): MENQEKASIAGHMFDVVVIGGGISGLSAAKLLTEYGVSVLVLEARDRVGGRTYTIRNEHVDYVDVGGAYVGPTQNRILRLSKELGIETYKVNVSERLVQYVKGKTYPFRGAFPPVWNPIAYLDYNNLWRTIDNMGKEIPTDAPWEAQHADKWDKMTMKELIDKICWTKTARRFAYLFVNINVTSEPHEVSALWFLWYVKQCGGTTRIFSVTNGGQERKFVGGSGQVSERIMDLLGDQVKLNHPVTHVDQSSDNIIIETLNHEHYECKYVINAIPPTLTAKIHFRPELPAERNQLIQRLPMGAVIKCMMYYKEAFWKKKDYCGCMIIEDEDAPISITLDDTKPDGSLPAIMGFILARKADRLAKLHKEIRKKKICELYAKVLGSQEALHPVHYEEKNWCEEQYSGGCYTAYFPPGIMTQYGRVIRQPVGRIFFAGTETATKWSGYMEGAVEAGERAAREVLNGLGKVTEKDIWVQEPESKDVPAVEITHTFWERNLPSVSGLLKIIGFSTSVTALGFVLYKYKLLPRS

[12] = Table 9, inhibition/concentration-response curve, read-out: IC50
[13] = Table 9, inhibition/concentration-response curve

CC(C)=CCC[C@H](CO)[C@@H]1CC[C@@H](C)c2c1cc(C)c(O)c2O [Compound 1, 7,8,18-trihydroxyserrulat-14-ene]
% Inhibition of Control Specific Binding ([1]; 10 μM): significant inhibitory activity | inhibition at 10 µM ([1]; 10 μM): 95% | inhibition of binding, 1st ([1]; 3.0E−05M): 100.6 | inhibition of binding, 2nd ([1]; 3.0E−05M): 99.6 | inhibition of binding, Mean ([1]; 3.0E−05M): 100.1 | inhibition of binding, 1st ([1]; 3.0E−06M): 17.0 | inhibition of binding, 2nd ([1]; 3.0E−06M): 28.0 | inhibition of binding, Mean ([1]; 3.0E−06M): 22.5 | inhibition of binding, 1st ([1]; 3.0E−07M): −0.2 | inhibition of binding, 2nd ([1]; 3.0E−07M): −2.9 | inhibition of binding, Mean ([1]; 3.0E−07M): −1.6 | inhibition of binding, 1st ([1]; 3.0E−08M): −12.3 | inhibition of binding, 2nd ([1]; 3.0E−08M): 1.8 | inhibition of binding, Mean ([1]; 3.0E−08M): −5.2 | inhibition of binding, 1st ([1]; 3.0E−09M): −2.6 | inhibition of binding, 2nd ([1]; 3.0E−09M): −8.2 | inhibition of binding, Mean ([1]; 3.0E−09M): −5.4 | IC50 [1, 12]: 4.2 µM | inhibition at 10 µM [2]: 56% | % Inhibition of Control Specific Binding ([3]; 10 μM): significant inhibitory activity | inhibition at 10 µM ([3]; 10 μM): 89% | IC50 [3, 13]: 4.5 µM | inhibition at 10 µM [4]: 31% | % Inhibition of Control Specific Binding ([5]; 10 μM): significant inhibitory activity | inhibition at 10 µM ([5]; 10 μM): 84% | inhibition of binding, 1st ([5]; 3.0E−05M): 102.3 | inhibition of binding, 2nd ([5]; 3.0E−05M): 102.3 | inhibition of binding, Mean ([5]; 3.0E−05M): 102.3 | inhibition of binding, 1st ([5]; 3.0E−06M): 8.4 | inhibition of binding, 2nd ([5]; 3.0E−06M): 11.3 | inhibition of binding, Mean ([5]; 3.0E−06M): 9.9 | inhibition of binding, 1st ([5]; 3.0E−07M): −14.1 | inhibition of binding, 2nd ([5]; 3.0E−07M): −11.0 | inhibition of binding, Mean ([5]; 3.0E−07M): −12.6 | inhibition of binding, 1st ([5]; 3.0E−08M): −9.7 | inhibition of binding, 2nd ([5]; 3.0E−08M): −14.6 | inhibition of binding, Mean ([5]; 3.0E−08M): −12.1 | inhibition of binding, 1st ([5]; 3.0E−09M): −6.0 | inhibition of binding, 2nd ([5]; 3.0E−09M): −8.6 | inhibition of binding, Mean ([5]; 3.0E−09M): −7.3 | IC50 [5, 12]: 3.8 µM | % Inhibition of Control Specific Binding [6]: significant inhibitory activity | inhibition at 10 µM [6]: 60% | inhibition at 10 µM [7]: 27% | inhibition at 10 µM [8]: 7% | inhibition at 10 µM [9]: 35% | inhibition at 10 µM [10]: 74% | IC50 [10]: 3.9 µM | % Control Response ([11]; 10 μM, assay year 2015): potent inhibitor | remaining activity at 10 µM ([11]; 10 μM, assay year 2015): 91% | IC50 ([11]; concentration-response 10 to 0.01 μM): 6.47 µM and 6.74 µM

CC(C)=CCC[C@@H]1C(O)Oc2c(C)cc(O)c3c2[C@H]1CC[C@H]3C (stereo partly shown) [Compound 2, 5,18-epoxyserrulat-14-en-8,18-diol]
inhibition at 10 µM ([1]; 10 μM): 59% | inhibition at 10 µM [2]: 17% | inhibition at 10 µM ([3]; 10 μM): 37% | inhibition at 10 µM [4]: 22% | inhibition at 10 µM ([5]; 10 μM): 43% | % Inhibition of Control Specific Binding [6]: significant activity | inhibition at 10 µM [6]: 89% | IC50 [6, 13]: 22 µM | inhibition at 10 µM [7]: 31% | inhibition at 10 µM [8]: 2% | inhibition at 10 µM [9]: 2% | inhibition at 10 µM [10]: 78% | IC50 [10]: 6.1 µM | remaining activity at 10 µM ([11]; 10 μM, assay year 2015): 34%

CC(C)=CCC[C@@H]1COc2c(C)cc(O)c3c2[C@H]1CC[C@H]3C [Compound 3, 5,18-epoxy-8-hydroxyserrulat-14-ene]
inhibition at 10 µM ([1]; 10 μM): 42% | inhibition at 10 µM [2]: 16% | inhibition at 10 µM ([3]; 10 μM): 40% | inhibition at 10 µM [4]: 13% | inhibition at 10 µM ([5]; 10 μM): 1% | inhibition at 10 µM [6]: 19% | inhibition at 10 µM [7]: 23% | inhibition at 10 µM [8]: 2% | inhibition at 10 µM [9]: 8% | inhibition at 10 µM [10]: 43% | remaining activity at 10 µM ([11]; 10 μM, assay year 2015): 27%
